Results from patent EP4389751A1, “HETEROCYCLIC COMPOUNDS AND USES THEREOF” (Kumquat Biosciences Inc., priority 2021, dated 2024).
Read-outs that look alike come from different tables or passages of the source.

Columns and labels:
K-Ras G12S = target: T1, K-Ras G12S (Homo sapiens, UniProt P01116, G12S); assay: HTRF assay of the K-Ras / SOS1 interaction; format: biochemical; conditions: IC50 (against K-Ras G12D) to IC50 (against K-Ras G12S)
T1 construct: made in house; host or cells: E. coli (e.g., BL21 (DE3))
Method in brief: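 Compounds (duplicates, 10 µM to 0.01 µM) were incubated ≥~10 min with Eu-labelled GST-K-Ras G12S and XL665-labelled His-hSOS1 in HEPES pH 7.4 buffer containing NaCl, DTT, BSA and Igepal. Disruption measured as HTRF emission ratio 665/620 nm, fitted to IC50.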

GP2D cells = assay: Cell proliferation assay (CellTiter-Glo), K-Ras G12D cells; format: cell-based; conditions: read-out: Inhibition of GP2D Cells (IC50)
Protocol: ASPC-1 (ATCC CRL-1682), Panc-10.05 (ATCC CRL-2547), A427, and GP2D (Sigma 95090714) cell lines comprise a G12D mutation and can be used to assess Ras cellular signaling in vitro, e.g., in response to the compounds herein. […] ASPC-1 culture medium is prepared with RPMI-1640 and 10% heat-inactivated FBS. Panc-10.05 culture medium is prepared with RPMI-1640, 10 Units/ml human recombinant insulin, and 10% FBS. A427 cell culture is prepared with RPMI-1640 and 10% heat-inactivated FBS. GP2D culture medium is prepared with DMEM with 2mM glutamine and 10% heat-inactivated FBS. A Cell Titer-Glo (CTG) luminescent based assay (Promega) is used to assess growth of the cells, as a measurement of the ability of the compounds herein to inhibit Ras signaling in the cells. The cells (e.g., 800 per well) are seeded in their respective culture medium in standard tissue culture-treated 384-well format plates (Falcon #08-772-116) or ultra-low attachment surface 384-well format plates (S-Bio # MS-9384UZ ). The day after plating, cells are treated with a dilution series (e.g., a 9 point 3-fold dilution series) of the compounds herein (e.g., approximately 40 µl final volume per well). Cell viability can be monitored (e.g., approximately 5 days later) according to the manufacturer's recommended instructions, where the CellTiter-Glo reagent is added (e.g., approximately 10 µl), vigorously mixed, covered, and placed on a plate shaker (e.g., approximately for 20 min) to ensure sufficient cell lysis prior to assessment of luminescent signal. The IC50 values are determined using the four parameter fit. The resulting IC50 value is a measurement of the ability of the compounds herein to reduce cell growth of Ras-driven cells (e.g., tumor cell lines) in vitro and/or in vivo.

T1 sequence (P01116 1-188 isoform P01116-2 G12S): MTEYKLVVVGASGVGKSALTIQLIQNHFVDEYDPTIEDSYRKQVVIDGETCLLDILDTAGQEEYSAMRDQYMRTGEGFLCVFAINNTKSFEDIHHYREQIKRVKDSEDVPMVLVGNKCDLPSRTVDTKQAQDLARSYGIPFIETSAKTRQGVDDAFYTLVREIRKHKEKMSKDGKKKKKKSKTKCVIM

Structure (SMILES) | Ratio of IC50 KRAS G12D vs. IC50 KRAS G12S (K-Ras G12S) | IC50 (GP2D cells; GP2d) | IC50 (GP2D cells; GP2D cells (K-Ras G12D))
Nc1nc2c(-c3c(Cl)cc4c(N5CC6CCC(C5)N6C(=O)n5cccn5)nc(OC[C@@]56CCCN5C[C@H](F)C6)nc4c3F)ccc(F)c2s1 [Compound A130, (3-(7-(2-amino-7-fluorobenzo[d]thiazol-4-yl)-6-chloro-8-fluoro-2-(((2R,7aS)-2-fluorotetrahydro-1H-pyrrolizin-7a(5H)-yl)methoxy)quinazolin-4-yl)-3,8-diazabicyclo[3.2.1]octan-8-yl)(1H-pyrazol-1-yl)methanone] | A (A: indicates that the ratio of IC50 against KrasG12D vs. IC50 against KrasG12S is 1-fold or greater) | 1000 to 10000 nM | –
Nc1nc2c(-c3c(Cl)cc4c(N5CCC6(CCN(C(=O)n7cncn7)CC6)CC5)nc(OC[C@@]56CCCN5C[C@H](F)C6)nc4c3F)ccc(F)c2s1 [Compound A250, (9-(7-(2-amino-7-fluorobenzo[d]thiazol-4-yl)-6-chloro-8-fluoro-2-(((2R,7aS)-2-fluorotetrahydro-1H-pyrrolizin-7a(5H)-yl)methoxy)quinazolin-4-yl)-3,9-diazaspiro[5.5]undecan-3-yl)(1H-1,2,4-triazol-1-yl)methanone] | A (A: indicates that the ratio of IC50 against KrasG12D vs. IC50 against KrasG12S is 1-fold or greater) | – | 1000 to 10000 nM
N#Cc1c(N)sc2c(F)ccc(-c3c(Cl)cc4c(N5CC6CCC(C5)N6C(=O)n5cccc5C#N)nc(OC[C@@]56CCCN5C[C@H](F)C6)nc4c3F)c12 [Compound A138, 1-(3-(7-(2-amino-3-cyano-7-fluorobenzo[b]thiophen-4-yl)-6-chloro-8-fluoro-2-(((2R,7aS)-2-fluorotetrahydro-1H-pyrrolizin-7a(5H)-yl)methoxy)quinazolin-4-yl)-3,8-diazabicyclo[3.2. 1]octane-8-carbonyl)-1H-pyrrole-2-carbonitrile] | A (A: indicates that the ratio of IC50 against KrasG12D vs. IC50 against KrasG12S is 1-fold or greater) | ≤ 1000 nM | –
Nc1nc2c(-c3c(Cl)cc4c(N5CCC6(CC5)CN(C(=O)n5cnc(F)c5)C6)nc(OC[C@@]56CCCN5C[C@H](F)C6)nc4c3F)ccc(F)c2s1 [Compound A303, (7-(7-(2-amino-7-fluorobenzo[d]thiazol-4-yl)-6-chloro-8-fluoro-2-(((2R,7aS)-2-fluorotetrahydro-1H-pyrrolizin-7a(5H)-yl)methoxy)quinazolin-4-yl)-2,7-diazaspiro[3.5]nonan-2-yl)(4-fluoro-1H-imidazol-1-yl)methanone] | A (A: indicates that the ratio of IC50 against KrasG12D vs. IC50 against KrasG12S is 1-fold or greater) | – | 1000 to 10000 nM
C#Cc1c(F)ccc2cc(O)cc(-c3ncc4c(N5C6COCC5CN(C(=O)n5cc(C#N)cn5)C6)nc(OC[C@@]56CCCN5C[C@H](F)C6)nc4c3F)c12 [Compound A226, 1-(9-(7-(8-ethynyl-7-fluoro-3-hydroxynaphthalen-1-yl)-8-fluoro-2-(((2R,7aS)-2-fluorotetrahydro-1H-pyrrolizin-7a(5H)-yl)methoxy)pyrido[4,3-d]pyrimidin-4-yl)-3-oxa-7,9-diazabicyclo[3.3.1]nonane-7-carbonyl)-1H-pyrazole-4-carbonitrile] | A (A: indicates that the ratio of IC50 against KrasG12D vs. IC50 against KrasG12S is 1-fold or greater) | – | 1000 to 10000 nM
Nc1nc2c(-c3c(Cl)cc4c(NC5CCN(C(=O)n6cc(F)cn6)CC5)nc(OC[C@@]56CCCN5C[C@H](F)C6)nc4c3F)ccc(F)c2s1 [Compound A291, (4-((7-(2-amino-7-fluorobenzo[d]thiazol-4-yl)-6-chloro-8-fluoro-2-(((2R,7aS)-2-fluorotetrahydro-1H-pyrrolizin-7a(5H)-yl)methoxy)quinazolin-4-yl)amino)piperidin-1-yl)(4-fluoro-1H-pyrazol-1-yl)methanone] | A (A: indicates that the ratio of IC50 against KrasG12D vs. IC50 against KrasG12S is 1-fold or greater) | – | 1000 to 10000 nM
N#Cc1c(N)sc2c(F)ccc(-c3c(Cl)cc4c(O[C@H]5C[C@H]6CC[C@@H](C5)N6C(=O)n5cncn5)nc(OC[C@@]56CCCN5C[C@H](F)C6)nc4c3F)c12 [Compound A300, 4-(4-(((1R,3r,5S)-8-(1H-1,2,4-triazole-1-carbonyl)-8-azabicyclo[3.2.1]octan-3-yl)oxy)-6-chloro-8-fluoro-2-(((2R,7aS)-2-fluorotetrahydro-1H-pyrrolizin-7 a(5H)-yl)methoxy)quinazolin-7-yl)-2-amino-7-fluorobenzo[b]thiophene-3-carbonitrile] | A (A: indicates that the ratio of IC50 against KrasG12D vs. IC50 against KrasG12S is 1-fold or greater) | 1000 to 10000 nM | –
Nc1nc2c(-c3c(Cl)cc4c(NC5CCN(C(=O)n6cnc(F)c6)CC5)nc(OC[C@@]56CCCN5C[C@H](F)C6)nc4c3F)ccc(F)c2s1 [Compound A193, (4-((7-(2-amino-7-fluorobenzo[d]thiazol-4-yl)-6-chloro-8-fluoro-2-(((2R,7aS)-2-fluorotetrahydro-1H-pyrrolizin-7a(5H)-yl)methoxy)quinazolin-4-yl)amino)piperidin-1-yl)(4-fluoro-1H-imidazol-1-yl)methanone] | A (A: indicates that the ratio of IC50 against KrasG12D vs. IC50 against KrasG12S is 1-fold or greater) | – | 1000 to 10000 nM
N#Cc1c(N)sc2c(F)ccc(-c3c(Cl)cc4c(C5C[C@H]6CC[C@@H](C5)N6C(=O)n5cncn5)nc(OC[C@@]56CCCN5C[C@H](F)C6)nc4c3F)c12 (stereo partly drawn) [Compound A235, 4-(4-((1R,5S)-8-(1H-1,2,4-triazole-1-carbonyl)-8-azabicyclo[3.2.1]octan-3-yl)-6-chloro-8-fluoro-2-(((2R,7aS)-2-fluorotetrahydro-1H-pyrrolizin-7a(5H)-yl)methoxy)quinazolin-7-yl)-2-amino-7-fluorobenzo[b]thiophene-3-carbonitrile] | A (A: indicates that the ratio of IC50 against KrasG12D vs. IC50 against KrasG12S is 1-fold or greater) | – | 1000 to 10000 nM
Cc1cnn(C(=O)N2CCN(c3nc(OC[C@@]45CCCN4C[C@H](F)C5)nc4c(F)c(-c5ccc(F)c6sc(N)nc56)c(Cl)cc34)CC(F)(F)C2)c1 [Compound A203, (4-(7-(2-amino-7-fluorobenzo[d]thiazol-4-yl)-6-chloro-8-fluoro-2-(((2R,7aS)-2-fluorotetrahydro-1H-pyrrolizin-7a(5H)-yl)methoxy)quinazolm-4-yl)-6,6-difluoro-1,4-diazepan-1-yl)(4-methyl-1H-pyrazol-1-yl)methanone] | A (A: indicates that the ratio of IC50 against KrasG12D vs. IC50 against KrasG12S is 1-fold or greater) | – | 1000 to 10000 nM
N#Cc1cnn(C(=O)N2CCC(Nc3nc(OC[C@@]45CCCN4C[C@H](F)C5)nc4c(F)c(-c5ccc(F)c6sc(N)nc56)c(Cl)cc34)CC2)c1 [Compound A151, 1-(4-((7-(2-amino-7-fluorobenzo[d]thiazol-4-yl)-6-chloro-8-fluoro-2-(((2R,7aS)-2-fluorotetrahydro-1H-pyrrolizin-7a(5H)-yl)methoxy)quinazolin-4-yl)amino)piperidine-1-carbonyl)-1H-pyrazole-4-carbonitrile] | A (A: indicates that the ratio of IC50 against KrasG12D vs. IC50 against KrasG12S is 1-fold or greater) | – | 1000 to 10000 nM
Nc1nc2c(-c3c(Cl)cc4c(NC5CCN(C(=O)n6cncn6)CC5)nc(OC[C@@]56CCCN5C[C@H](F)C6)nc4c3F)ccc(F)c2s1 [Compound A187, (4-((7-(2-amino-7-fluorobenzo[d]thiazol-4-yl)-6-chloro-8-fluoro-2-(((2R,7aS)-2-fluorotetrahydro-1H-pyrrolizin-7a(5H)-yl)methoxy)quinazolin-4-yl)amino)piperidin-1-yl)(1H-1,2,4-triazol-1-yl)methanone] | A (A: indicates that the ratio of IC50 against KrasG12D vs. IC50 against KrasG12S is 1-fold or greater) | – | 1000 to 10000 nM
N#Cc1ccn(C(=O)N2C3CCC2CN(c2nc(OC[C@@]45CCCN4C[C@H](F)C5)nc4c(F)c(-c5ccc(F)c6sc(N)nc56)c(Cl)cc24)C3)c1 [Compound A188, 1-(3-(7-(2-amino-7-fluorobenzo[d]thiazol-4-yl)-6-chloro-8-fluoro-2-(((2R,7aS)-2-fluorotetrahydro-1H-pyrrolizin-7a(5H)-yl)methoxy)quinazolin-4-yl)-3,8-diazabicyclo[3.2. 1]octane-8-carbonyl)-1H-pyrrole-3-carbonitrile] | A (A: indicates that the ratio of IC50 against KrasG12D vs. IC50 against KrasG12S is 1-fold or greater) | ≤ 1000 nM | –
